# Test results as given in PMC9674596, “Origin of acetylcholine antagonism in ELIC, a bacterial pentameric ligand-gated ion channel” (Communications Biology, 2022).
# Entries after “also recorded” stand apart in the source; their conditions may differ.
# What was measured:
# wild-type ELIC [1] = molecular target: T1, wild-type ELIC (Dickeya chrysanthemi, UniProt P0C7B7, INS163G); assay: Two-electrode voltage clamp, whole-cell currents of wild-type ELIC expressed in Xenopus laevis oocytes; type: cell-based, Erwinia chrysanthemi; details: for Activation by amine (whole-cell response): 25 mM amine
# T1 construct: expressed in transfected cells; host or cells: Xenopus laevis oocytes injected with cRNA from ELIC-pTLN
# Procedure: (§1) Stage V-VI Xenopus laevis oocytes were isolated[72] and deflocculated enzymatically in ND96 buffer without Ca^2+ (96 mM NaCl, 2 mM KCl, 1 mM MgCl2, 2 mM pyruvate, 5 mM HEPES, pH 7.4), but supplemented with 1 mg/mL collagenase B and 1 mg/mL trypsin inhibitor, for 2 h at room temperature under constant stirring. The deflocculation buffer was then gradually removed by washing the oocytes in ND96 buffer (96 mM NaCl, 2 mM KCl, 1 mM MgCl2, 1 mM CaCl2, 2 mM pyruvate, 5 mM HEPES, pH 7.4) for several iterations. The oocytes were then allowed to stir for an additional hour at room temperature under constant stirring with the buffer being periodically replaced until clear. To obtain optimal receptor expression, individually selected and healthy oocytes were injected with 0.2 ng cRNA for wild-type ELIC and 5 ng cRNA for mutants. Subsequently, oocytes were incubated for one day at 16 °C in ND96^+ buffer (96 mM NaCl, 2 mM KCl, 1 mM MgCl2, 1 mM CaCl2, 2 mM pyruvate, and 5 mM HEPES at pH 7.6). After expression, injected oocytes were placed in a RC-1Z oocyte chamber (Harvard Apparatus; Hamden, CT) containing buffer (pH 7.4) composed of 150 mM NaCl, 0.5 mM BaCl2, 10 mM HEPES, and 1 mM dithiothreitol or 1 µM atropine if cysteamine, or ACh, was used in the experiment, respectively. The presence of the reducing agent, dithiothreitol, ensures that the sulfhydryl group of cysteamine remains reduced.
# (§2) Once in the oocyte chamber, whole-cell currents were recorded using a two-electrode voltage-clamp apparatus (OC-725C oocyte clamp; Harvard Apparatus), with a buffer flow rate of 5–10 mL min^−1. Currents in response to various additions of cysteamine and/or ACh, were measured with the transmembrane voltage clamped at −60 mV. Dose response curves for each wild-type and mutant ELIC were acquired from at least five oocytes in two different batches.
# (§3) For identifying the half maximal effective concentration (EC50) and apparent Hill coefficient (nH) of cysteamine, dose response curves were created by taking the magnitude of each cysteamine-activated peak current (I) and normalizing this value to the maximal peak current in the presence of excess agonist (Imax). The log (base 10) cysteamine concentration in molar was then plotted on the x-axis against the fractional response (I/Imax) on the y-axis. The data was fitted using nonlinear regression with a variable slope sigmoidal dose response (Eq. 1, below) in GraphPad Prism (v.8.0.0).1 y=1/1+10^nH^LogEC50−X
# Individual EC50 and Hill coefficients were averaged for each oocyte to derive a mean ± standard deviation. […] […] The log (base 10) ACh concentration was then plotted on the x-axis against the fractional response (I/Io) on the y-axis. Subsequent steps were the same as above for deriving a cysteamine EC50 and Hill coefficient. The individual IC50 and Hill coefficients were averaged for each oocyte to derive a mean ± one standard deviation. Lastly, to identify four normalized response values, cysteamine at the 10% maximal effective concentration (EC10), 20% maximal effective concentration (EC20), EC50 and 90% maximal effective concentration (EC90), was applied in the presence and absence of 25 mM ACh. The cysteamine-activated peak current with 25 mM ACh, was normalized to the cysteamine-activated peak current without ACh.
# ELIC Y38W [2] = molecular target: ELIC Y38W (Dickeya chrysanthemi, UniProt P0C7B7, Y38W); assay: Two-electrode voltage clamp, Y38W mutant ELIC expressed in Xenopus laevis oocytes; type: cell-based, Erwinia chrysanthemi; details: Y38W
# Procedure: as §1, §2, §3
# (§4) Individual EC50 and Hill coefficients were averaged for each oocyte to derive a mean ± standard deviation. For identifying a half maximal inhibitory concentration (IC50) and Hill coefficient of ACh, a concentration of cysteamine corresponding to its EC50 was used in the presence of increasing concentrations of ACh. Peak currents elicited from cysteamine with ACh (I) were normalized to the initial cysteamine peak current in the absence of ACh (Io). The log (base 10) ACh concentration was then plotted on the x-axis against the fractional response (I/Io) on the y-axis. Subsequent steps were the same as above for deriving a cysteamine EC50 and Hill coefficient. The individual IC50 and Hill coefficients were averaged for each oocyte to derive a mean ± one standard deviation. Lastly, to identify four normalized response values, cysteamine at the 10% maximal effective concentration (EC10), 20% maximal effective concentration (EC20), EC50 and 90% maximal effective concentration (EC90), was applied in the presence and absence of 25 mM ACh. The cysteamine-activated peak current with 25 mM ACh, was normalized to the cysteamine-activated peak current without ACh.
# ELIC Y38W [3] = assay: as above; type: cell-based, Erwinia chrysanthemi; details: Y38W
# Procedure: as §1, §2, §3, §4
# ELIC A75D = molecular target: T2, ELIC A75D (Dickeya chrysanthemi, UniProt P0C7B7, A75D/INS163G); assay: Two-electrode voltage clamp, A75D mutant ELIC expressed in Xenopus laevis oocytes; type: cell-based, Erwinia chrysanthemi; details: A75D
# T2 construct: expressed in transfected cells; host or cells: Xenopus laevis oocytes injected with cRNA from ELIC-pTLN
# ELIC I79Y = molecular target: T3, ELIC I79Y (Dickeya chrysanthemi, UniProt P0C7B7, I79Y/INS163G); assay: Two-electrode voltage clamp, I79Y mutant ELIC expressed in Xenopus laevis oocytes; type: cell-based, Erwinia chrysanthemi; details: ACh 0.5 mM to 50 mM, followed by 5 mM cysteamine
# T3 construct: expressed in transfected cells; host or cells: Xenopus laevis oocytes injected with cRNA from ELIC-pTLN
# Procedure: as §1, §2, §3
# as §4, with “The cysteamine-activated peak current with 25 mM ACh, was normalized to the cysteamine-activated peak current without ACh.” left out
# ELIC F133W = ELIC F133W (Dickeya chrysanthemi, UniProt P0C7B7, F133W); assay: cell-based; type: cell-based, Erwinia chrysanthemi; details: F133W
# Procedure: as §1, §2, §3, §4
# ELIC A75D/F133W = molecular target: T4, ELIC A75D/F133W (Dickeya chrysanthemi, UniProt P0C7B7, A75D/F133W/INS163G); assay: Two-electrode voltage clamp, A75D/F133W double mutant ELIC expressed in Xenopus laevis oocytes; type: cell-based, Erwinia chrysanthemi; details: for Activation by amine (whole-cell response): 25 mM amine; for Activation by amine (whole-cell response) / Effect of co-applied ligand on cysteamine-activated current: cysteamine at its EC50; for Effect of co-applied ligand on cysteamine-activated current: 25 mM ligand, 40 s pulse; for Potentiation of the cysteamine response on co-application: 50 mM co-applied in the middle of a cysteamine pulse at EC50 (6.9 mM); for Response when applied by themselves: 50 mM applied for 40 s without cysteamine
# T4 construct: expressed in transfected cells; host or cells: Xenopus laevis oocytes injected with cRNA; DNA construct synthesised by Twist Bioscience
# Procedure: as §1, §2, §3, §4
# ELIC L240A (L9′A) = molecular target: T5, ELIC L240A (L9′A) (Dickeya chrysanthemi, UniProt P0C7B7, L239A); assay: Two-electrode voltage clamp, L240A (L9′A) mutant ELIC expressed in Xenopus laevis oocytes; type: cell-based, Erwinia chrysanthemi; details: L9′A; 30 s applications of ACh 0.5 to 50 mM, then 5 mM cysteamine
# T5 construct: expressed in transfected cells; host or cells: Xenopus laevis oocytes injected with cRNA from ELIC-pTLN
# Procedure: as §1, §2, §3
# (§5) Individual EC50 and Hill coefficients were averaged for each oocyte to derive a mean ± standard deviation. For identifying a half maximal inhibitory concentration (IC50) and Hill coefficient of ACh, a concentration of cysteamine corresponding to its EC50 was used in the presence of increasing concentrations of ACh. […]
# [4] = molecular target: T6, ELIC L240A (L9′A) + A75D/F133W (Dickeya chrysanthemi, UniProt P0C7B7, A75D/F133W/L239A); assay: Two-electrode voltage clamp, L9′A + A75D/F133W triple mutant ELIC expressed in Xenopus laevis oocytes; type: cell-based, Erwinia chrysanthemi; details: L9′A + A75D/F133W; 30 s applications of ACh 0.5 to 50 mM, then 5 mM cysteamine
# T6 construct: expressed in transfected cells; host or cells: Xenopus laevis oocytes injected with cRNA
# Procedure: as §1, §2, §3, §5
# wild-type ELIC [5] = molecular target: T1, wild-type ELIC; details: cited from earlier work
# wild-type ELIC [6] = molecular target: T1, wild-type ELIC; assay: Two-electrode voltage clamp, whole-cell currents of wild-type ELIC expressed in Xenopus laevis oocytes; type: cell-based, Erwinia chrysanthemi; details: WT ELIC, ACh inhibition of GABA-activated current
# [7] = WT, 25 mM ligand, 40 s pulse, cysteamine at its EC50
# [8] = ACh inhibition, cysteamine at its EC50
# [9] = cysteamine at EC10, EC20, EC50, EC90
# [10] = ACh 0.5 mM to 50 mM, followed by 5 mM cysteamine
structure (smiles),measurement,setting,value
"CC(=O)OCC[N+](C)(C)C [ACh, acetylcholine]",Inhibition Hill coefficient,"wild-type ELIC [1]; WT ELIC, ACh inhibition of cysteamine-activated current",–1.1 ± 0.1
same,Activation by amine (whole-cell response),wild-type ELIC [1]; WT,fail to activate
same,Effect of co-applied ligand on cysteamine-activated current,wild-type ELIC [1]; [7],completely inhibited
same,Effect of 25 mM ACh on cysteamine-activated currents,"wild-type ELIC [1]; WT, cysteamine at EC10, EC20, EC50, EC90",nearly fully inhibited
same,Peak current on application of ligand alone,"wild-type ELIC [1]; WT, ACh 0.5 mM to 50 mM, followed by 5 mM cysteamine","None of the single mutants, nor wild-type ELIC, produced any peak current"
same,Inhibition Hill coefficient,ELIC Y38W [2]; [8],–1.4 ± 0.1
same,Effect of 25 mM ACh on cysteamine-activated currents,ELIC Y38W [2]; [9],nearly fully inhibited
same,Peak current on application of ligand alone,ELIC Y38W [2]; [10],"None of the single mutants, nor wild-type ELIC, produced any peak current"
same,Decrease in ACh IC50 relative to wild-type,ELIC Y38W [3],3 fold
same,Increase in ACh IC50 relative to wild-type,ELIC A75D,7 fold
same,Inhibition Hill coefficient,ELIC A75D; [8],–0.7 ± 0.1
same,Effect of 25 mM ACh on cysteamine-activated currents,ELIC A75D; [9],increasing the concentration of cysteamine reduced the degree of inhibition
same,Peak current on application of ligand alone,ELIC A75D; [10],"None of the single mutants, nor wild-type ELIC, produced any peak current"
same,Peak current on application of ligand alone,ELIC I79Y,"None of the single mutants, nor wild-type ELIC, produced any peak current"
same,Inhibition Hill coefficient,ELIC F133W; [8],–1.1 ± 0.1
same,Effect of 25 mM ACh on cysteamine-activated currents,ELIC F133W; [9],increasing the concentration of cysteamine reduced the degree of inhibition
same,Peak current on application of ligand alone,ELIC F133W; [10],"None of the single mutants, nor wild-type ELIC, produced any peak current"
same,Activation by amine (whole-cell response),ELIC A75D/F133W,fail to activate
same,Effect of co-applied ligand on cysteamine-activated current,ELIC A75D/F133W,same small degree of potentiation
same,Potentiation of the cysteamine response on co-application,ELIC A75D/F133W,potentiation
same,Effect of high ACh concentrations on cysteamine peak current,"ELIC A75D/F133W; ACh 50–100 mM, cysteamine at EC50",appeared to potentiate
same,ACh inhibition of the cysteamine response,"ELIC A75D/F133W; cysteamine fixed at EC50 (6.9 mM), ACh up to 100 mM",failed to inhibit; also recorded: no inhibition by ACh is observed
same,Current on application of ligand alone,ELIC L240A (L9′A),Neither mutant produced observable current; also recorded: No ACh-induced currents were observed
same,Current on application of ligand alone,[4],Neither mutant produced observable current; also recorded: No ACh-induced currents were observed
same,Action on ELIC,wild-type ELIC [5],competitive antagonist
same,Inhibition Hill coefficient,wild-type ELIC [6],–1.0 ± 0.3
"[Cl-].[Na+] [NaCl, sodium chloride]",Response when applied by themselves,ELIC A75D/F133W,negligible response
same,Potentiation of the cysteamine response on co-application,ELIC A75D/F133W,"small, but reproducible, degree of potentiation"
"C[N+](C)(C)C [tetramethylammonium, Tetramethylammonium]",Activation by amine (whole-cell response),wild-type ELIC [1]; WT,fail to activate
same,Activation by amine (whole-cell response),ELIC A75D/F133W,fail to activate
OC[C@H]1O[C@@](CO)(O[C@H]2O[C@H](CO)[C@@H](O)[C@H](O)[C@H]2O)[C@@H](O)[C@@H]1O [sucrose],Response when applied by themselves,ELIC A75D/F133W,negligible response
same,Potentiation of the cysteamine response on co-application,ELIC A75D/F133W,did not potentiate
"CN(C)C [trimethylamine, Trimethylamine]",Activation by amine (whole-cell response),wild-type ELIC [1]; WT,activate
same,Activation by amine (whole-cell response),ELIC A75D/F133W,activate
"CC(=O)OCCN(C)C [DMAEA, 2-dimethylaminoethyl acetate]",Activation by amine (whole-cell response),wild-type ELIC [1]; WT,activate
same,Effectiveness of activation compared with wild-type ELIC,ELIC A75D/F133W; 25 mM,much less effective than observed with wild-type ELIC
same,Activation by amine (whole-cell response),ELIC A75D/F133W,activate
same,Action on ELIC,wild-type ELIC [5],able to activate ELIC
"NCCCC(=O)O [GABA, γ-aminobutyric acid]",Activation Hill coefficient,"wild-type ELIC [1]; WT ELIC, agonist activation",4.0 ± 0.7
same,Increase of cysteamine-activated current by co-applied ligand,wild-type ELIC [1]; [7],roughly 2 fold
same,Macroscopic activation/deactivation kinetics of agonist-activated currents,"wild-type ELIC [1]; WT, compared with cysteamine, agonists at their EC50",slower macroscopic activation/deactivation kinetics
same,Activation by amine (whole-cell response),ELIC A75D/F133W,fails to elicit a response
same,Effect of co-applied ligand on cysteamine-activated current,ELIC A75D/F133W,same small degree of potentiation
same,Action on ELIC,wild-type ELIC [5],agonist
CCCN [propylamine],Action on ELIC,wild-type ELIC [5],agonists
